The subject of series [1] is C57BL/6J-APC Min/+ transgenic mice. The series can be described thus: Number and volume of intestinal polyps in APC Min/+ mice fed different diets for 10 weeks. In kind it is in vivo, mouse. To be noted: standard diet, s.c. pellet 1.5 mg 17β-estradiol, mean ± SD. An excerpt: The C57BL/6J APC Min/+ transgenic mouse is an excellent animal model for FAP, because the mutated APC gene is homologous to the human one. Even in the most common form of CRC, called sporadic, 85% of cases show the somatic mutation of the APC tumour suppressor gene. Therefore, the APC mutated transgenic animal model is acknowledged as the most significant for the study of the pathogenetic mechanisms that characterise the adenomatous polyposis in the colon, both in FAP and sporadic form, and it is considered a validated animal model for the set up of nutritional and pharmacological interventions aimed at controlling the development of adenomas and at preventing their progression to CRC (Levy D B et al. Inactivation of both APC alleles in human and mouse tumors. Cancer Res 1994, 54: 5953-5958; Paulsen J E et al. Qualitative and quantitative relationship between dysplastic aberrant crypt foci and tumorigenesis in the Min/+ mouse colon). For this reason, in setting up the oral formulations object of the present invention, and in the evaluation of their safety and efficacy, the Inventors made use of the above mentioned C57BL/6J APC Min/+ transgenic mouse model. Hereafter are described the data showing the effect in C57BL/6J-APC Min/+ transgenic mice, orally fed silymarin added diets, containing soluble and insoluble fibres in different proportions with the purpose of highlighting the differentiative properties of the insoluble and indigestible fibre. […]
After 10 weeks of treatment the animals received an intraperitoneal injection of 0.75 mg of Bromodeoxyuridine (BrdU), equivalent to 30 mg/kg, to verify the migration of cells of the intestinal mucosa along the villus axis (from crypt at the bottom to the luminal tip). […] Two blinded observers measured the number and size of polyps. […]

Series [2] can be described thus: Body weight, mortality, dietary intake and tolerability during 10 weeks of diet. To be noted: standard diet, s.c. pellet 1.5 mg 17β-estradiol, mean ± SD. As to the method: Silymarin up to 200 mg/kg was added to each diet. The diets were orally administered for 10 weeks to 114 male C57BL/6J-APC Min/+ transgenic mice 5-6 weeks old. These mice have a mutation of the APC gene, and are prone to develop colon adenomatous polyposis. […] The statistical analysis has been performed by means of the One-way Analysis of Variance and the t-Student tests, considering statistically significant a p<0.05.
Every oral treatment lasted 10 weeks. The treatment scheme was designed to highlight the effects of the type of fibre, associated or not with increasing amounts of silymarin.

The test system of series [3] is C57BL/6J-APC Min/+ transgenic mice. The series can be described thus: Histological grading of dysplasia of adenomatous formations. In kind it is in vivo, mouse. To be noted: estradiol-treated animals. An excerpt: Histological preparations of randomly chosen intestine sections of every animal from the different treatment groups were observed by a blinded pathologist, who graded the dysplasia of the adenomatous formations present as minor, mild or severe.

The test system of series [4] is cells of the intestinal mucosa. The series can be described thus: BrdU cell migration along the villus axis (highest labeled cell). In kind it is in vivo, mouse. The note with it: estrogen s.c., standard diet, 24 h after BrdU. On the procedure:
After 10 weeks of treatment the animals received an intraperitoneal injection of 0.75 mg of Bromodeoxyuridine (BrdU), equivalent to 30 mg/kg, to verify the migration of cells of the intestinal mucosa along the villus axis (from crypt at the bottom to the luminal tip). This parameter allows to verify the normal esfoliative physiology of the intestinal mucosa, through which the mucosa keeps itself composed of healthy and vital cells. To this end, the animals were sacrificed 24, 48 and 72 hours after injection. Small intestine and colon were taken from every sacrificed animal. The small intestine was divided into three sections: proximal, medial and distal. The proximal tract was further divided in two portions that were subsequently scraped. One of the two was dipped in RNAlater® and stored at −20° C. and the other stored in liquid nitrogen. The two samples were used for Real Time PCR and Western Blotting, respectively. The medial and distal tracts, together with the colon, were used for the histological analysis. After a 3-hours pre-fixative treatment with formol, the intestinal tracts under examination were observed under an STM1 stereomicroscope, 3× magnification. Two blinded observers measured the number and size of polyps.

Series [5] has as its system C57BL/6J-APC Min/+ transgenic mice. The note with it: female transgenic mice, administration after ovariectomy, Weyant et al.; cited from earlier work.

Take `C[C@]12CC[C@@H]3c4ccc(O)cc4CC[C@H]3[C@@H]1CC[C@@H]2O` [estrogen, 17β-estradiol]: the “Number of intestinal polyps” value in series [1] worked out at 32.33 ± 12.06. Further, the Polyps volume in series [1] (listed as Estrogen) is on record as 141.78 ± 79.1 mm^3; in series [1] (listed as estradiol), “ineffective”. In series [2], the “Body weight at time of sacrifice” value worked out at 24.9 ± 2.8 g. Moreover, the “Animals showing polyps with dysplasia classifiable as severe” value in series [3] stood at 70%. The “24 hours migration of colonocytes from the crypt to the apex of the villus” value in series [4] was 47.3 ± 10.5 %. Also, the “Intestinal adenomas after ovariectomy” value in series [5] is “caused a reduction in intestinal adenomas”.
